# According to US9303042B2, “Triazolothienopyrimidine compound inhibitors of urea transporters and methods of using inhibitors” (The Regents of the University of California, priority 2012, dated 2016):
# Legend:
# UT-A1 = target: T1, UT-A1 (Rattus norvegicus, UniProt Q62668); assay: Transepithelial urea transport in MDCK cells stably expressing UT-A1; type: cell-based; conditions: UTBinh-14 10 μM, forskolin
# T1 construct: expressed in transfected cells; host or cells: MDCK cells (MDCK-UT-A1), obtained as described in cited literature
# T1 sequence (Q62668 1-929): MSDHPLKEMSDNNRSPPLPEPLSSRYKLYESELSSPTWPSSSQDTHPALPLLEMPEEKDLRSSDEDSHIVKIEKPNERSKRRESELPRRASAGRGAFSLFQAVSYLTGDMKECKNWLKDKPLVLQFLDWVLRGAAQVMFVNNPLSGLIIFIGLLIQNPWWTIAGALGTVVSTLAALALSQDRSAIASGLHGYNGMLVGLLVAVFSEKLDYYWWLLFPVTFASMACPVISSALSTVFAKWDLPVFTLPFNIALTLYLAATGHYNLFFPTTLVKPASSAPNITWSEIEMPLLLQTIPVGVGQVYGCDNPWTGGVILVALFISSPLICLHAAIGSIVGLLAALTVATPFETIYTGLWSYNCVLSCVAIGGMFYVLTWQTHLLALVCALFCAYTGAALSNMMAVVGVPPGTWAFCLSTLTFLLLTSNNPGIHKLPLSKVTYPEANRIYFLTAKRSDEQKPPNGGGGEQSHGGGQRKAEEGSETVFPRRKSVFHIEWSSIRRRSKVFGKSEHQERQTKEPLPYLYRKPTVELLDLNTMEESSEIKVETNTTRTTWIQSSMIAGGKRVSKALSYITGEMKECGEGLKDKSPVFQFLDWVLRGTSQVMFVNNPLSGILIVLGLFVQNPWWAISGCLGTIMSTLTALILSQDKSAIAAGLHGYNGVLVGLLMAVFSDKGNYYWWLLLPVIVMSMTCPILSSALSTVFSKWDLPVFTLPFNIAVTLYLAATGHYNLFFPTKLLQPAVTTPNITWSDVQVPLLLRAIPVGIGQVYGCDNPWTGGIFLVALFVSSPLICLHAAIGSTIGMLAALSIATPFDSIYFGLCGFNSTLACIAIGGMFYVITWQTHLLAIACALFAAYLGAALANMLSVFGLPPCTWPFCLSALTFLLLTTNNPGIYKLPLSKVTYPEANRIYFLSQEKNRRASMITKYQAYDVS
# Protocol: UT-B selectivity and cytotoxicity were studied. Because of sequence similarities between UT-B and UT-A isoforms, UT-A inhibition was measured. Transepithelial urea transport was measured in MDCK cells stably expressing UT-A1, UT-A3, and UT-B. UT-A1 and UT-A3 are cAMP-regulated urea transporters expressed in kidney tubule epithelia (see, e.g., Frohlich et al., Am. J. Physiol. Cell Physiol. 291:C600-606 (2006); Tickle et al., Am. J. Physiol. Regul. Integr. Comp Physiol 0.297: R323-329 (2009); Stewart et al., Am. J. Physiol. Renal Physiol. 292:F1157-63 (2006)). MDCK cells were cultured on collagen-coated porous filters for measurement of urea accumulation in the apical solution following addition of urea to the basolateral solution.
# cDNAs encoding mouse UT-A3 and UT-B were cloned into pcDNA3.1 and used to generate stably transfected MDCK cell lines. MDCK cells stably expressing rat UT-A1 (MDCK-UT-A1) (see, e.g., Frohlich et al., supra) were obtained as described (see, e.g., Levin et al., FASEB J., supra). Cells were cultured in DMEM containing 10% FBS and 0.5 mg/mL G418. […] Urea flux in the basolateral-to-apical direction across unstimulated and forskolin-stimulated cell layers was measured in response to a 15-mM urea gradient. […]
# mice = assay: Urinary concentration in mice; type: in vivo, mouse
# Protocol: In some studies, mice were placed on low, normal or […] diets (4%, 20% or 40% casein, Harlan Labs.) for 1 week prior study of dDAVP effects. […] Urea concentration was determined by a colorimetric enzymatic assay as described above. Measurements were also done in the absence of dDAVP in which urine was collected during free access to food and water. […]
# [1] = free access to food and water, no dDAVP, 300 μg
structure (smiles),measurement,setting,value
"CCc1ccc(S(=O)(=O)c2nnn3c2nc(NCc2cccs2)c2sccc23)cc1 [UTBinh-14, [3-(4-Ethyl-benzenesulfonyl)-thieno[2,3-e][1,2,3]triazolo[1,5-a]pyrimidin-5-yl]-thiophen-2-ylmethylamine]",inhibition of UT-A1 facilitated urea transport,UT-A1,little inhibition
same,"urine osmolality, UT-B knockout mice","mice; 300 μg intraperitoneal, dDAVP",did not significantly reduce
same,"urine urea concentration, UT-B knockout mice","mice; 300 μg intraperitoneal, dDAVP",did not significantly reduce
same,"urine osmolality, wild type mice","mice; 300 μg intraperitoneal, dDAVP 1 h later",significantly reduced
same,"effect on dDAVP-stimulated urinary concentration, low-protein diet","mice; 1 week low-protein diet, 300 μg",little effect
same,urine osmolality,mice; [1],reduced
same,urine urea concentration,mice; [1],reduced
same,urine volume,mice; [1],significantly increased
